Laboratory results as given in patent US10265327B2, “V1A antagonists to treat phase shift sleep disorders” (Hoffmann-La Roche Inc., priority 2013, dated 2019).
Entries after “also recorded” stand apart in the source; their conditions may differ.

Tested on: C57BL/6J mice
Assay: Jet-lag test: behavioural re-entrainment to 6 h phase advance of the LD cycle
Assay type: in vivo, mouse
Details: for days to total behavioural re-entrainment after the 6 h phase shift: mean ± SEM, n=5
Experimental: In all studies described below, male young-adult C57BL/6J mice (4 weeks old at the beginning of experiments) were used. Animals were exposed to a light-dark cycle (LD) 12:12 (lights on from 8 h to 20 h geographical time; light intensity at 200 lux; during dark period dim red light of 5 lux) in individual cages with food and water ad libitum and temperature (22±1° C.) and humidity (55%±5%) controlled. LD cycle was represented as zeitgeber times (ZT) where ZT0 represents the lights on and ZT12 lights off. When animals were exposed to constant darkness conditions (DD), circadian times (CT) were used as time point references, where CT12 corresponds to activity onset.
To evaluate the effects of the V1a antagonist trans-8-chloro-5-methyl-1-(4-pyridin-2-yloxycyclohexyl)-4,6-dihydro-[1,2,4]triazolo[4,3-a][1,4]benzodiazepine on light synchronization of behavioural circadian rhythms, a jet-lag protocol of 6 h phase shift was used. After being under a LD cycle 12 h/12 h (for at least 10 days), mice were exposed to a 6 -h phase advance of the light-dark cycle (first “jet-lag” test, advance shift) and to the administration of vehicle or 30 mg/kg of the V1a antagonist trans-8-chloro-5-methyl-1-(4-pyridin-2-yloxycyclohexyl)-4,6-dihydro-[1,2,4]triazolo[4,3-a][1,4]benzodiazepine. On the day of the shift, the time of lights off was phase-advanced by 6 h. Here we used three groups of animals: a sham group (Group 1, n=3), animals in which the cannula was introduced in the oral cavity without any solution delivery; a vehicle group (Group 2, n=4), which received vehicle, and a 30 mg/kg trans-8-chloro-5-methyl-1-(4-pyridin-2-yloxycyclohexyl)-4,6-dihydro-[1,2,4]triazolo[4,3-a][1,4]benzodiazepine group (Group 3, n=5). All manipulations were at ZT6 (6 h after lights on) on the last LD cycle before the 6 h phase advance.
In a second experiment, using naive animals, a second jet-lag test was evaluated. Thus, using a new group of male mice, the effects of 30 mg/kg trans-8-chloro-5-methyl-1-(4-pyridin-2-yloxycyclohexyl)-4,6-dihydro-[1,2,4]triazolo[4,3-a][1,4]benzodiazepine on the re-synchronization to a 6 h phase advance of the LD cycle were tested. Animals under a LD cycle 12 h/12 h (for at least 10 days) were exposed to a phase advance of 6 h of the LD cycle and to the administration of vehicle or 30 mg/kg of the V1a antagonist trans-8-chloro-5-methyl-1-(4-pyridin-2-yloxycyclohexyl)-4,6-dihydro-[1,2,4]triazolo[4,3 -a][1,4]benzodiazepine at ZT/CT6. Similarly to the previous experiment, three groups of animals were used: a sham group (Group 1, n=3), animals in which the cannula was introduced in the oral cavity without any solution delivery; a vehicle group (Group 2, n=4) which received vehicle, and a 30 mg/kg trans-8-chloro-5-methyl-1 -(4-pyridin-2-yloxycyclohexyl)-4,6-dihydro-[1,2,4]triazolo[4,3 -a][1,4]benzodiazepine group (Group 3, n=5).
The locomotor activity rhythms were measured using infra-red detectors on the top of the cages and/or running wheels.
Re-entrainment (jet-lag tests): For 6 h phase-shift (jet-lag protocol) the number of days after the shift for total re-entrainment was quantified, considering both the onset and offset of activity. The onsets and offsets of activity were identified automatically using ClockLab software. Thus, full resynchronization to a new LD cycle, after 6-hour phase shifts of the time of lights off, was considered when activity onset took place at the new time of lights off ±30 minutes. The number of days (transitory cycles) required to re-synchronize was calculated for each mouse. The speed of re-entrainment was evaluated calculating the onset of activity and the advance of it, in hours, daily. To evaluate the effects of manipulations on locomotion, the locomotor activity changes from 0 to 6 h after each treatment were quantified in 30 min intervals (see activity profiles determination).
Values in all experiments are means ±SEM. […]

CN1Cc2cc(Cl)ccc2-n2c(nnc2[C@H]2CC[C@H](Oc3ccccn3)CC2)C1 [Example 1, trans-8-chloro-5-methyl-1-(4-pyridin-2-yloxycyclohexyl)-4,6-dihydro-[1,2,4]triazolo[4,3-a][1,4]benzodiazepine]
re-entrainment of the circadian clock to a new LD cycle (overall conclusion) (both jet-lag experiments, 30 mg/kg): accelerates the re-entrainment
locomotor activity induced by manipulations (jet-lag test 1, 30 mg/kg at ZT6, 0 to 6 h after treatment): not significantly different between groups
daily adjustment of onset of activity to the LD cycle (speed of re-entrainment) (jet-lag test 1, 30 mg/kg at ZT6, first 5 days after the shift, 30 mg/kg): much more rapid daily adjustment; also recorded: significantly faster re-entrainment
days to total behavioural re-entrainment after the 6 h phase shift (jet-lag test 1, 30 mg/kg oral at ZT6): 3.2 ± 0.33 days
increase in locomotion induced by manipulations (second jet-lag test, naive mice, 30 mg/kg at ZT/CT6): not significantly different between groups
daily adjustment of onset of activity to the LD cycle (speed of re-entrainment) (second jet-lag test, naive mice, 30 mg/kg at ZT/CT6, first 4 days after the shift, 30 mg/kg): much more rapid daily adjustment; also recorded: significantly faster re-entrainment
days to total behavioural re-entrainment after the 6 h phase shift (second jet-lag test, naive mice, 30 mg/kg oral at ZT/CT6): 3.4 ± 0.24 days
